Experimental data from PubChem BioAssay AID652053 (Broad Institute, 2013).

Test system: Huh7 psiCHECK-miR122 Renilla luciferase reporter, 48 h
Assay: miR-122 inhibitors in Huh7 reporter cells, dose response, cell-based, Huh7 psiCHECK-miR122, Renilla luciferase, cherry-pick (AID 652053)

Compound | AC40 [µM]
COc1ccc(NS(=O)(=O)c2cc(NC(=O)c3cnccn3)ccc2N2CCCC2)cc1 | 3.27
CC(C)(C)NS(=O)(=O)c1ccc(OCC(=O)Nc2ccc3c(c2)OCCO3)cc1 | 14.7
COc1ccc(NC(=O)Cc2cccc(F)c2)cc1S(=O)(=O)Nc1ccccc1Cl | 4.83
Cc1ccc(S(=O)(=O)Nc2ccc3ncccc3c2)cc1 | 11.6
Cc1cccc(NS(=O)(=O)c2ccc3c(c2)OCCO3)c1 | 1.57
Cc1ccc(C)c(S(=O)(=O)Nc2ccc3sc(C)nc3c2)c1 | 1.5
O=S(=O)(NCCC1=CCCCC1)c1ccccc1Br | 2.03
COc1ccc(C)cc1S(=O)(=O)NCCC1=CCCCC1 | 0.465
CN1CC(c2ccccc2Cl)C2(COc3ccccc3C2=O)C12C(=O)Nc1ccccc12 (stereo not given) | 2.2
C[C@@H]1CN([C@@H](C)CO)C(=O)Cc2cc(N(C)C)ccc2O[C@@H]1CN(C)Cc1ccc(C(=O)Nc2ccccc2N)cc1 | 10
CC(=O)N1CCOc2ccc(S(=O)(=O)Nc3cccc(C)c3)cc21 | 1.64
C[C@H](CO)N1C[C@H](C)[C@@H](CN(C)Cc2ccc(C(F)(F)F)cc2)Oc2ccc(N(C)C)cc2C1=O | 0.891
Cc1cc(C)nc(N/C(=N\S(=O)(=O)Cc2ccccc2)Nc2ccccc2Br)n1 | 8.51
Cc1cc(C(C)(C)C)cc(S(=O)(=O)NCCO)c1C | 1.16
CCc1ccc(S(=O)(=O)Nc2ccc(Cl)cn2)cc1 | 8.84
CCCNC(=O)C[C@H]1CC[C@H]2[C@H](COc3ccc(NC(=O)c4ccc5c(c4)OCO5)cc3C(=O)N2C)O1 | 14.2
COc1cc(C)c(S(=O)(=O)Nc2ccccc2F)cc1C | 3.14
Cc1cc(C)cc(NS(=O)(=O)c2ccc(NC(=S)NC(=O)c3ccc(Br)o3)cc2)c1 | 0.769
Cc1ccc(C(=O)Nc2ccccc2C(=O)O)cc1S(=O)(=O)Nc1ccccc1 | 2.74
O=S(=O)(NCCc1ccc(F)cc1)c1cc(C(F)(F)F)ccc1Br | < 0.26
Cc1cc(S(=O)(=O)Nc2ccc3ccccc3c2)c(C)s1 | 1.06
O=C(C1CCCCC1)N1[C@H](CO)[C@@H]2c3ccccc3N(S(=O)(=O)c3ccccc3)C[C@@H]21 | 3.09
O=C(Cc1ccccc1)N1C[C@H]2[C@@H](c3ccccc31)[C@@H](CO)N2C(=O)c1ccc(F)cc1 | 5.37
COc1cccc(NS(=O)(=O)c2cc(C)ccc2OC)c1 | 1.53
Cc1ccc(C)c(S(=O)(=O)Nc2ccc(O)cc2)c1 | 8.22

Compound | AC40 [µM]
COc1ccc(NS(=O)(=O)c2cc(NC(=O)c3sccc3C)ccc2N2CCOCC2)cc1 | < 0.26
C[C@@H]1CN([C@H](C)CO)C(=O)c2cc(NC(=O)c3ccncc3)ccc2O[C@@H]1CN(C)S(=O)(=O)c1ccc(Cl)cc1 | 1.63
COc1ccc(S(=O)(=O)NC2CCCCC2)cc1C | 3.14
O=C(NNS(=O)(=O)c1ccc(Cl)cc1)c1cccc(S(=O)(=O)N2CCOCC2)c1 | 5.2
CC(=O)N1CCOc2ccc(S(=O)(=O)NCCc3ccc(Cl)cc3)cc21 | 5.14
Cc1noc(C)c1NC(=O)Nc1cccc2c1O[C@@H](CN(C)Cc1ccc(Cl)c(Cl)c1)[C@@H](C)CN([C@H](C)CO)C2=O | 0.826
O=C(Nc1nc2ccc(Cl)cc2s1)c1ccco1 | 20.8
C[C@H](CO)N1C[C@H](C)[C@@H](CN(C)Cc2ccc(C(F)(F)F)cc2)Oc2c(NC(=O)c3cnccn3)cccc2C1=O | 1.43
C[C@@H]1CN([C@@H](C)CO)C(=O)c2cccc(N(C)C)c2O[C@@H]1CN(C)Cc1ccc(C(=O)Nc2ccccc2N)cc1 | 3.25
CC(NC(=O)COc1ccccc1)C(=O)OCC(=O)c1cc2ccccc2o1 (stereo not given) | 33.5
COc1cc(NS(=O)(=O)c2csc(C(N)=O)c2)cc(OC)c1 | 1.51
O=S(=O)(Nc1ccc(S(=O)(=O)N2CCCC2)cc1)c1ccccc1Br | 4.34
Cc1ccc(S(=O)(=O)Nc2cccc3c2O[C@H](CN(C)Cc2ccc(C(=O)Nc4ccccc4N)cc2)[C@H](C)CN([C@H](C)CO)C3=O)cc1 | 10.8
CSc1ccc(S(=O)(=O)NC2CC3CCC2C3)cc1 (stereo not given) | 5.6
Cc1cc(S(=O)(=O)Nc2cccc(O)c2)c(C)s1 | 31
O=S(=O)(c1ccccc1)N(CC(O)COc1ccccc1)c1ccccc1 (stereo not given) | 18.9
Cc1cc(C)cc(Cn2c3ccc(NC(=S)NCc4ccccc4F)cc3c(=O)n2C)c1 | 4.19
CC12CCC3C(CCC4(O)CC(O)CCC34C=O)C1(O)CCC2C1=CC(=O)OC1 (stereo not given) | 2.4
COc1ccc(C(=O)N2C[C@H]3[C@@H](c4ccccc42)[C@@H](CO)N3C(=O)c2ccc(F)cc2)cc1 | 0.631
COc1ccc(NS(=O)(=O)c2cc(-c3cnc(C4CC4)o3)ccc2C)cc1 | 5.35
O=S(=O)(NCC1CCCO1)c1ccc(Cl)c(C(F)(F)F)c1 (stereo not given) | 7.84
Cc1cc(C(O)c2ncc(-c3ccccc3)[nH]2)ccc1F (stereo not given) | 19.2
C[C@@H]1CCCCO[C@@H](CN(C)CC2CCCCC2)[C@@H](C)CN([C@H](C)CO)C(=O)c2cc(NC(=O)CCC(F)(F)F)ccc2O1 | 9.73
O=C(c1ccc(F)cc1)N1C[C@@H]2[C@H](c3ccccc31)[C@H](CO)N2C(=O)c1ccc(F)cc1 | 2.35
CC(=O)c1c(C)[nH]c(C(=O)Nc2ccc(C)c(S(=O)(=O)Nc3ccc(C)cc3C)c2)c1C | 8.45

Compound | AC40 [µM]
COc1ccc(NC(=O)C(OC(=O)Cn2cnc3c2c(=O)n(C)c(=O)n3C)c2ccccc2)cc1Cl (stereo not given) | 7.87
COc1ccc(OC)c(S(=O)(=O)N2CCC3(CC2)OCCN3S(=O)(=O)c2cccs2)c1 | 15.7
C[C@@H]1CN([C@H](C)CO)C(=O)c2cccc(NC(=O)Nc3ccccc3)c2O[C@H]1CN(C)Cc1ccc(C(F)(F)F)cc1 | 3.22
Cc1cc(C)c(C)c(S(=O)(=O)NC2CCN(Cc3ccccc3)CC2)c1C | 9.53
COc1ccc(OC)c(NS(=O)(=O)c2ccc(N3CCCC3=O)cc2)c1 | 14.8
Cc1ccc(S(=O)(=O)c2cccc(S(=O)(=O)N3CCCC3)c2)cc1S(=O)(=O)N1CCCC1 | 9.91
COc1cccc(N2CCN(C(=O)c3oc4ccccc4c3NC(=O)CCc3cc(OC)no3)CC2)c1 | 1.31
CCN(CC)c1ccc(N)cc1S(=O)(=O)Nc1ccc(OC)cc1 | 27.3
CCOc1ccccc1N(CC(=O)Nc1cccnc1)S(=O)(=O)c1ccc(C)cc1 | 8.03
COc1ccc(S(=O)(=O)NC2CC3CCC2C3)cc1Cl (stereo not given) | 4.66
O=S1(=O)CCC(NS(=O)(=O)c2ccc3ccccc3c2)C1 (stereo not given) | 13.4
Cc1noc(C)c1NC(=O)Nc1cccc2c1O[C@H](CN(C)Cc1ccccc1)[C@@H](C)CN([C@H](C)CO)C2=O | 7.74
Cc1cc(C)cc(C(O)c2ncc(-c3ccccc3F)[nH]2)c1 (stereo not given) | 2.5
C[C@@H]1CN([C@H](C)CO)C(=O)Cc2cc(NC(=O)Nc3ccc4c(c3)OCO4)ccc2O[C@@H]1CN(C)C(=O)Nc1cccc2ccccc12 | 0.579
CCOc1cc(C)c(S(=O)(=O)Nc2ccc(Cl)cn2)cc1C | 4.04
CCN(CC)S(=O)(=O)c1cc(NS(=O)(=O)c2cc(Cl)ccc2Cl)ccc1C | 4.19
COc1ccccc1C(=O)Nc1ccc2c(c1)C(=O)N(C)[C@H]1CC[C@@H](CC(=O)NCc3ccc(Cl)c(Cl)c3)O[C@@H]1CO2 | 2.85
CCc1ccc(-c2cc(C)no2)cc1S(=O)(=O)NCc1ccccc1OC | 3.11
Cc1ccc(NS(=O)(=O)c2cc(C(=O)NCc3ccccn3)ccc2Cl)cc1C | 2.91
Cc1ccc(C)c(S(=O)(=O)Nc2ccc3cn[nH]c3c2)c1 | 3.58
COc1ccc(NS(=O)(=O)c2cc3c(cc2C)N(C)CCO3)c(OC)c1 | 1.81
CCOc1ccc(-c2cc(N)n(S(=O)(=O)c3ccc(OC)c(OC)c3)n2)cc1 | 4.11
COc1ccc(S(=O)(=O)Nc2ccc(C(F)(F)F)cc2)cc1OC | 2.12
CCN(CC)c1ccc(S(=O)(=O)Nc2cc(Cl)ccc2Cl)cc1NC(=S)NC(=O)C1CCCC1 | 7.34
CC(C)(C)NS(=O)(=O)c1ccc2[nH]c3c(c2c1)CCCCC3 | 5.04

Compound | AC40 [µM]
Cc1noc(C)c1S(=O)(=O)N(C)C[C@@H]1Oc2c(NC(=O)c3cnccn3)cccc2C(=O)N([C@@H](C)CO)C[C@@H]1C | 5.81
O=S1(=O)c2ccc(Br)cc2N2CCC[C@H]2CN1Cc1ccccc1 | 34.9
CCOc1ccc(Cl)cc1S(=O)(=O)NC1CCCC1 | 2.27
Cc1cccc(NS(=O)(=O)c2csc(C(N)=O)c2)c1 | 3.34
COc1ccc(NS(=O)(=O)c2ccc(NC(=S)NC(=O)C(C)C)cc2)cc1 | 1.34
CCN(CC)S(=O)(=O)c1ccc(N2CCOCC2)c(NS(=O)(=O)c2ccc(C(C)C)cc2)c1 | 5.51
Cc1cccc(C)c1NC(=S)NC(C)CCc1ccccc1 (stereo not given) | 17
CCOc1cc(C)c(S(=O)(=O)Nc2ccc3cn[nH]c3c2)cc1C | 1.24
C[C@@H]1CN([C@H](C)CO)C(=O)c2cccc(NC(=O)Nc3ccc(F)cc3)c2O[C@H]1CN(C)Cc1ccc(C(F)(F)F)cc1 | 1.51
CCOC(=O)c1c(C)[nH]c(C)c1S(=O)(=O)NCCCc1ccco1 | 5.96
COc1ccc(NS(=O)(=O)c2cc(NC(=O)COc3ccc(OC)cc3)ccc2N2CCOCC2)cc1 | 2.62
COc1ccc(C)cc1S(=O)(=O)Nc1ccc(F)cc1 | 1.04
Cc1ccccc1OCC(=O)NNC(=O)Nc1ccc(Cl)cc1 | 17.4
COc1c(S(=O)(=O)NCCCn2ccnc2)ccc(Cl)c1Cl | 21.3
O=C1NC(=O)C(CCc2ccncc2)(Cc2cccc(Cl)c2Cl)C(=O)N1c1ccc(Br)cc1 (stereo not given) | 2.98
Cc1cc(C(O)c2ncc(-c3ccccc3F)[nH]2)ccc1F (stereo not given) | 3.57
CCOC(=O)c1cc(S(=O)(=O)Nc2cccc(OC)c2)cn1C | 1.84
COc1cc(C)c(C(C)C)cc1S(=O)(=O)n1cnc(C)c1 | 2.65
O=C(NCc1ccco1)c1ccc(Cl)c(S(=O)(=O)Nc2ccccc2)c1 | 4.59
Cc1ccc(S(=O)(=O)Nc2c(C)ccc3nsnc23)cc1 | 17.6
O=S(=O)(c1ccccc1)N1C[C@H]2[C@@H](c3ccccc31)[C@@H](CO)N2Cc1ccc2c(c1)OCO2 | 8.56
COc1ccc(S(=O)(=O)N(C)C[C@H]2Oc3ccc(N(C)C)cc3C(=O)N([C@H](C)CO)C[C@@H]2C)cc1 | 9.52
CCOc1ccc2cc(C3CC(c4ccco4)=NN3S(C)(=O)=O)c(=O)[nH]c2c1 (stereo not given) | 7.29
CC(NC(=S)Nc1ccc(Cl)cc1Cl)C(c1cccs1)N1CCCC1 (stereo not given) | 23.8
CCOc1cc(C)c(S(=O)(=O)Nc2ccc(F)cc2)cc1C | 0.908
